# ChEMBL document CHEMBL1201862, “PubChem BioAssay data set” (2004)
# Active and inactive are the calls of the source.
# Columns and labels:
# cells [1] = assay: cells
# [2] = target: Mitogen-activated protein kinase 10 (Homo sapiens, UniProt P53779); assay: Dose response biochemical screening assay for inhibitors of c-Jun N-Terminal Kinase 3 (JNK3). [Related pubchem assays: 746 ]
# Leucine aminopeptidase = target: T1, Leucine aminopeptidase (Plasmodium falciparum 3D7, UniProt Q8IL11); assay: P. falciparum M17LAP inhibitors, primary screen, biochemical, fluorogenic H-Leu-NHMec substrate, 1536-well (AID 1619); format: functional
# T1 sequence (Q8IL11 whole entry): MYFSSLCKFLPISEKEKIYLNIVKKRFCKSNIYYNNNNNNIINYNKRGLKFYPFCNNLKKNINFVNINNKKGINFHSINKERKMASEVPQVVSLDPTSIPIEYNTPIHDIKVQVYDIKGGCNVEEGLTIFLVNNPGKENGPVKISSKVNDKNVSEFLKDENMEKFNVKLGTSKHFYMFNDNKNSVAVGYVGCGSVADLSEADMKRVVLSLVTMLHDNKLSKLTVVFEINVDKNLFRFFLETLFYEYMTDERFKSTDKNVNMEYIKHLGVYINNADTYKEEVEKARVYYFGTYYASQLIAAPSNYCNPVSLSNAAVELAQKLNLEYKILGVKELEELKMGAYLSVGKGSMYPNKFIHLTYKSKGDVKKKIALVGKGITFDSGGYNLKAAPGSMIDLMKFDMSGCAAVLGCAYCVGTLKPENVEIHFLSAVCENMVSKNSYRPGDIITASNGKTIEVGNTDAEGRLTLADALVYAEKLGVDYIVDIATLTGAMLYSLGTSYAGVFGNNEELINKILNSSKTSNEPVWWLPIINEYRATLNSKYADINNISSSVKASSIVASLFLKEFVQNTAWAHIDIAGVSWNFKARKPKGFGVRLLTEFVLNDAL
# Major prion protein = Major prion protein (Homo sapiens, UniProt P04156); format: functional, cell-based
# [3] = Dose-response inhibition of insulin secretion in a rat insulinoma line at 5 mM glucose (AID 1117331); format: functional, cell-based; conditions: INS-1E
# cells [4] = format: functional, cell-based; conditions: INS-1E
# [5] = target: T2, Tyrosine-protein phosphatase non-receptor type 22 (Homo sapiens, UniProt Q9Y2R2); assay: SAR LYP1 Fluorescent Assay using OMFP substrate for In Vitro dose response studies - Set 3. [Related pubchem assays (depositor defined):AID1779, AID1784, AID2140, AID2686]; format: functional
# T2 sequence (Q9Y2R2 whole entry): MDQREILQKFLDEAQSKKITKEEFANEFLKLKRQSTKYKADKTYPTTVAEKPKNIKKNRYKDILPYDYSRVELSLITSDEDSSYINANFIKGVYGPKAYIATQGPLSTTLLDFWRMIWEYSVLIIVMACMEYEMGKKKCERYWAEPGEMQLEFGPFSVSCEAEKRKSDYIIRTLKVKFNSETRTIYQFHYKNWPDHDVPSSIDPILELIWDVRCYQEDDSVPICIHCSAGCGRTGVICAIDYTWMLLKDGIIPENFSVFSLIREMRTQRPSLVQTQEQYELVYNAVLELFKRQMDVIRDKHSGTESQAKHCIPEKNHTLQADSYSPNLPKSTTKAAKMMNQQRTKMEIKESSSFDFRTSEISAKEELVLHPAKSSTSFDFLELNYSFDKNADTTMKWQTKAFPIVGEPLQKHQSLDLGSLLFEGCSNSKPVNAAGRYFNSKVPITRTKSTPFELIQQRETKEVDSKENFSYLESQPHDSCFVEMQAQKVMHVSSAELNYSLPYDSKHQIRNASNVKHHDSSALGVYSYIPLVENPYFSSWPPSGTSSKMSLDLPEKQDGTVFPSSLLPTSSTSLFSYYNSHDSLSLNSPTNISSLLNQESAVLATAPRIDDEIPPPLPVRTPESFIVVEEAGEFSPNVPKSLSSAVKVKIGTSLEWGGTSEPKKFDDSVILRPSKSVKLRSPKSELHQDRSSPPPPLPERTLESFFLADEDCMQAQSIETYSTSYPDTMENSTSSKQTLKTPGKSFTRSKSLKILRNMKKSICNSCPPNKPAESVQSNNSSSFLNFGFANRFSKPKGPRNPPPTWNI
# [6] = target: G-protein coupled receptor 35 (Homo sapiens, UniProt Q9HC97); assay: SAR Analysis for the identification of Selective Antagonists of ERK1/2 Activity in GPR35-Overexpressing U2OS Cells. [Related pubchem assays: 2079, 2058 ]; format: functional, cell-based
# [7] = target: Tyrosine-protein phosphatase non-receptor type 12 (Homo sapiens, UniProt Q05209); assay: SAR Selectivity Analysis of small molecule inhibitors of PEST using pCAP in a fluorescence assay. [Related pubchem assays (depositor defined):AID1779, AID1784, AID2135]; format: functional
# [8] = target: T2, Tyrosine-protein phosphatase non-receptor type 22; assay: LYP (PTPN22) phosphatase inhibitor potency, SAR follow-up, biochemical, pCAP fluorogenic substrate, fluorescence, set 3 (AID 449727); format: functional
# [9] = target: G-protein coupled receptor 55 (Homo sapiens, UniProt Q9Y2T6); assay: GPR55 antagonists, SAR follow-up, counter-screen for GPR35 antagonist project, imaging, image-based (AID 2397); format: functional
# [10] = target: T3, Tyrosine-protein phosphatase non-receptor type 7 (Homo sapiens, UniProt P35236); assay: HePTP (PTPN7) phosphatase inhibitor potency, SAR follow-up, biochemical, set 2 (AID 449736); format: functional
# T3 sequence (P35236 whole entry): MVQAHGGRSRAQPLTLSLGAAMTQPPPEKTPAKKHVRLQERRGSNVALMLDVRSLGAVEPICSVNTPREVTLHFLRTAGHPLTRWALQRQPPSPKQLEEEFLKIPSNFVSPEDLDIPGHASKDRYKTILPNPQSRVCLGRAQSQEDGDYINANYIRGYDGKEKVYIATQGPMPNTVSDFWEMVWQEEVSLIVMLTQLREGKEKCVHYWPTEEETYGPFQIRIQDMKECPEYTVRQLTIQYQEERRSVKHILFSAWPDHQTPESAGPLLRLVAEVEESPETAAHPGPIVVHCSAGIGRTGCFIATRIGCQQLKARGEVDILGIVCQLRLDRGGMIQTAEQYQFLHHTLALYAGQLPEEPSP
# [11] = P. falciparum ATP4 D1247Y mutant growth inhibitors, dose response, NITD609-resistant line, SYBR Green, dry powder (AID 1159571); format: functional, cell-based;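 note: parasites synchronized at ring stage by sorbitol before testing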
# [12] = HepG2 cell cytotoxicity, dose response, cytotoxicity control, plate reader, dry powder samples (AID 1159569); format: functional, cell-based;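 note: inhibitor potency with signal falling toward the positive control level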
# [13] = P. falciparum Dd2 growth inhibitors, dose response, SYBR Green, cherry-picked samples (AID 1159567); format: functional, cell-based
# [14] = P. falciparum 3D7-ScDHODH growth inhibitors, dose response, SYBR Green, dry powder samples (AID 1159570); format: functional, cell-based;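 note: parasite growth measured after 72 hours of compound exposure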
# [15] = P. falciparum Dd2 growth inhibitors, dose response, SYBR Green, dry powder samples (AID 1159566); format: functional, cell-based;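 note: potency for growth inhibition with lower SYBR green DNA signal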
smiles,measurement,setting,value
N#Cc1c(O)nc(SCC(=O)Nc2cccc(Cl)c2)nc1-c1ccco1,IC50,cells [1],> 138 µM (inactive)
same,IC50,[2],29.7 µM (not active)
same,IC50,Leucine aminopeptidase,2.5 µM (active)
same,IC50,Major prion protein,1.69 µM (active)
CCN(CC)CCNC(C(=O)OCCC(C)C)c1ccccc1 (configuration not stated) [CAMYLOFIN],IC50,[3],24.8 µM (inactive)
same,IC50,cells [4],> 33.3 µM (inactive)
CCOC(=O)c1ccc(NC(=O)CCCN2C(=O)/C(=C/c3ccc(C)cc3)SC2=S)cc1,IC50,[5],> 100 µM (inactive)
same,IC50,[6],21.4 µM (not active)
same,IC50,[7],96.4 µM (active)
same,IC50,[8],> 100 µM (inactive)
same,IC50,[9],> 32 µM (inactive)
same,IC50,[10],> 100 µM (inactive)
Cc1ccc(S(=O)(=O)N(C)C[C@H]2OCc3ccccc3-c3c(n(C)c4ccccc34)C(=O)N([C@@H](C)CO)C[C@H]2C)cc1,AC50,[11],2.63 µM (active)
same,AC50,[12],9.17 µM (active)
same,AC50,[13],2.23 µM (active)
same,AC50,[14],3.19 µM (active)
same,AC50,[15],2.01 µM (active)
